Read-outs that look alike come from different tables or passages of the source.
Legend:
[1] = molecular target: T1, HCV NS5B polymerase 1a-H77 (Hepatitis C virus genotype 1a, UniProt P27958); assay: biochemical; set-up: species or system HCV genotype 1a; conditions: enzyme, strain 1a H77; read-out: HCV Polymerase Strain 1a H77 IC50
T1 construct: six-histidine tag; made in house; host or cells: E. coli
In short: (§1)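 E. coli-expressed NS5B (residues 1-570, His-tagged) transcribed a 2.1 kb HCV 1b negative-strand 3′-end RNA template (5 nM) with 20 μM CTP, 20 μM ATP and 0.284 μM [3H]UTP for 3 h at 30° C. Spermine-precipitated RNA was filter-captured and counted by scintillation; IC50 from nonlinear regression.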

[2] = molecular target: T2, HCV NS5B polymerase 1a-H77-C316Y (Hepatitis C virus genotype 1a, UniProt P27958, C2736Y); assay: biochemical; set-up: species or system HCV genotype 1a
T2 construct: six-histidine tag; made in house; host or cells: E. coli
T2 sequence (P27958 2421-2990 C2736Y): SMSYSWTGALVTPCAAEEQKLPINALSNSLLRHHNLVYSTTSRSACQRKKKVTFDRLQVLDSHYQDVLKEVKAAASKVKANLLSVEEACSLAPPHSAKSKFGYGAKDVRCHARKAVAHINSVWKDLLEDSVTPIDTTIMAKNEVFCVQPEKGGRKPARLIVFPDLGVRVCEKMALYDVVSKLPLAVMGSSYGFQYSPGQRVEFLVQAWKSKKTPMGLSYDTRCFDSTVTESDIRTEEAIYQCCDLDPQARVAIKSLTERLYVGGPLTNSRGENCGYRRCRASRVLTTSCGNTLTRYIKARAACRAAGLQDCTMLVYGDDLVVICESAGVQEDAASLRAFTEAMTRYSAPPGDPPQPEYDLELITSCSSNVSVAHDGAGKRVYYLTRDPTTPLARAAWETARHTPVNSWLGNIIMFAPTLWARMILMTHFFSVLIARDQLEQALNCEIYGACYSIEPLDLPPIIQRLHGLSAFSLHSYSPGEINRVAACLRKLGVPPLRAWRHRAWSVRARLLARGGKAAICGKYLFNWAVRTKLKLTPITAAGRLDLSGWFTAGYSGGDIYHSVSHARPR
In short: as §1

[3] = tested on: HCV NS5B polymerase 1a-H77-C316Y; assay: biochemical; set-up: species or system HCV genotype 1a; conditions: ratio of enzyme IC50s, 1a H77-C316Y / 1a H77
In short: as §1

[4] = molecular target: T3, HCV NS5B polymerase 1b BK strain (Hepatitis C virus genotype 1b, UniProt P26663); assay: HCV NS5B polymerase enzymatic inhibition assay, strain 1b BK; assay type: biochemical; conditions: enzyme, strain 1b BK; read-out: HCV Polymerase Strain 1b BK IC50
T3 construct: six-histidine tag; made in house; host or cells: E. coli
T3 sequence (P26663 2420-2989): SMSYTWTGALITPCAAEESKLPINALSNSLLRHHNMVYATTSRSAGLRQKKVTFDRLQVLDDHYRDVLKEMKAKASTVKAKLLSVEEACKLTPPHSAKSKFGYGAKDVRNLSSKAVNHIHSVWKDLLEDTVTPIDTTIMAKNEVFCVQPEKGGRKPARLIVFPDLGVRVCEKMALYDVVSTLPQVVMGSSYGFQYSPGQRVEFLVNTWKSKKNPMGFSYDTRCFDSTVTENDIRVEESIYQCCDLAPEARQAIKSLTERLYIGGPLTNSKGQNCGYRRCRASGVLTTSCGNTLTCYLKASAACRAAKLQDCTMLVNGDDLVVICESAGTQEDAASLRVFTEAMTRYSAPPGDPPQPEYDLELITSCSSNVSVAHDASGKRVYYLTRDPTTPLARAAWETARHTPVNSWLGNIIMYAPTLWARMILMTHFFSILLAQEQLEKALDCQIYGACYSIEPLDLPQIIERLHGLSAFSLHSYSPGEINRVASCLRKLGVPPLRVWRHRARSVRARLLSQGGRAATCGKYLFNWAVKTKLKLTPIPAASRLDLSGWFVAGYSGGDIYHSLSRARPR
In short: as §1

[5] = tested on: HCV 1a-H77 subgenomic replicon; assay: microbe, parasite or virus in culture; assay type: cell-based, HCV genotype 1a; conditions: Hepatitis C virus, stable replicon
[6] = tested on: HCV 1b-BB7 subgenomic replicon; assay: microbe, parasite or virus in culture; assay type: cell-based, HCV genotype 1b; conditions: Hepatitis C virus, stable replicon
[7] = tested on: chimeric replicon with 2a-J6CF-derived NS5B; assay: microbe, parasite or virus in culture; assay type: cell-based, HCV genotype 2a; conditions: Hepatitis C virus, read-out: 2a chimera 5% FBS EC50
[8] = tested on: chimeric replicon with genotype 2b NS5B; assay: microbe, parasite or virus in culture; assay type: cell-based, HCV genotype 2b; conditions: Hepatitis C virus, read-out: 2b chimera 5% FBS EC50
[9] = tested on: chimeric replicon with genotype 3a NS5B; assay: microbe, parasite or virus in culture; assay type: cell-based, HCV genotype 3a; conditions: Hepatitis C virus, read-out: 3a chimera 5% FBS EC50
[10] = tested on: chimeric replicon with genotype 4a NS5B; assay: microbe, parasite or virus in culture; assay type: cell-based, HCV genotype 4a; conditions: Hepatitis C virus, read-out: 4a chimera 5% FBS EC50
[11] = 5% FBS, absence of human plasma, read-out: Stable Replicon 1a H77 5% FBS EC50
[12] = strain 1a H77, 5% FBS + 40% human plasma, read-out: 1a H77 5% FBS + 40% Human Plasma EC50
[13] = strain 1a H77, 5% FBS, no human plasma, read-out: 1a H77 5% FBS EC50
[14] = strain 1a H77, 5% FBS, read-out: 1a H77 5% FBS EC50
[15] = strain 1b BB7, 5% FBS + 40% human plasma, read-out: 1b BB7 5% FBS + 40% Human Plasma EC50
[16] = strain 1b BB7, 5% FBS, no human plasma, read-out: 1b BB7 5% FBS EC50
[17] = strain 1b BB7, 5% FBS, read-out: 1b BB7 5% FBS EC50

T1 sequence (P27958 2421-2990): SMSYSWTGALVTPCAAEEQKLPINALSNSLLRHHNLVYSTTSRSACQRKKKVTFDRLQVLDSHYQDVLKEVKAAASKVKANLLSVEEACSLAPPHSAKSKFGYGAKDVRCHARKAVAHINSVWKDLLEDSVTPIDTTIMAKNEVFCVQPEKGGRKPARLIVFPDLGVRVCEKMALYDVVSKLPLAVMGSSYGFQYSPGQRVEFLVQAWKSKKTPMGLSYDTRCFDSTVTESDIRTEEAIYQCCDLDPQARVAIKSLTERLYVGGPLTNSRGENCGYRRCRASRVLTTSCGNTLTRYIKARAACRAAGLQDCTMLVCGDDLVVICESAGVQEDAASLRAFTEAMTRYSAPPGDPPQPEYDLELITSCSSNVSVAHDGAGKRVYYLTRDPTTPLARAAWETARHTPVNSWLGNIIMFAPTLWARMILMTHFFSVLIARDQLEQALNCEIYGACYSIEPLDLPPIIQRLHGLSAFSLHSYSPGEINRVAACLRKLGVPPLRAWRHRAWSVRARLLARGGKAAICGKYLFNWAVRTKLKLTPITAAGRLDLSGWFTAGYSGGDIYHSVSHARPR

Structure (SMILES)	IC50 [1] [nM]	IC50 [2] [nM]	C316Y/1a Fold Resistance [3] [fold]	IC50 [4] [nM]	EC50 [5, 11] [nM]	EC50 [5, 12] [nM]	EC50 [5, 13] [nM]	EC50 [5, 14] [nM]	EC50 [6, 15] [nM]	EC50 [6, 16] [nM]	EC50 [6, 17] [nM]	EC50 [7] [nM]	EC50 [8] [nM]	EC50 [9] [nM]	EC50 [10] [nM]
CS(=O)(=O)N(CC1CCOCC1)c1cc2oc(-c3ccc(F)cc3)c(-c3ncc[nH]3)c2cc1C1CC1 [Example 38, N-[5-cyclopropyl-2-(4-fluorophenyl)-3-(1H-imidazol-2-yl)-1-benzofuran-6-yl]-N-(tetrahydro-2H-pyran-4-ylmethyl)methanesulfonamide]	5	148	30	33	10.2	117	10.2	10.2	245	12.7	12.7	88.2	81.4	25.2	161
CCCCN(c1cc2oc(-c3ccc(F)cc3)c(-c3ncc[nH]3)c2cc1C1CC1)S(C)(=O)=O [Example 39, N-butyl-N-[5-cyclopropyl-2-(4-fluorophenyl)-3-(1H-imidazol-2-yl)-1-benzofuran-6-yl]methanesulfonamide]	5	78	16	17	33.1	132	33.1	33.1	59	29.7	29.7	105	133	28.4	187
CS(=O)(=O)N(CCCC(F)(F)F)c1cc2oc(-c3ccc(F)cc3)c(-c3ncc[nH]3)c2cc1C1CC1 [Example 44, N-[5-cyclopropyl-2-(4-fluorophenyl)-3-(1H-imidazol-2-yl)-1-benzofuran-6-yl]-N-(4,4,4-trifluorobutyl)methanesulfonamide]	5	105	21	19	23.7	420	23.7	23.7	81	16.1	16.1	93.7	97.7	15.1	176
CC(=O)OCCCCCN(c1cc2oc(-c3ccc(F)cc3)c(-c3ncc[nH]3)c2cc1C1CC1)S(C)(=O)=O [Example 46, 5-{[5-cyclopropyl-2-(4-fluorophenyl)-3-(1H-imidazol-2-yl)-1-benzofuran-6-yl](methylsulfonyl)amino}pentyl acetate]	4.5	98	22	11	4.5	112	4.5	4.5	36	4.7	4.6	27.5	23.7	2.7	31.1
CS(=O)(=O)N(CCC1CCOCC1)c1cc2oc(-c3ccc(F)cc3)c(-c3ncc[nH]3)c2cc1C1CC1 [Example 48, N-[5-cyclopropyl-2-(4-fluorophenyl)-3-(1H-imidazol-2-yl)-1-benzofuran-6-yl]-N-[2-(tetrahydro-2H-pyran-4-yl)ethyl]methanesulfonamide]	7.7	74	10	23	11.4	147	11.4	11.4	75	8.4	8.5	83.7	69.2	10	46.4
CS(=O)(=O)N(CC1CC1)c1cc2oc(-c3ccc(F)cc3)c(-c3ncc[nH]3)c2cc1C1CC1 [Example 53, N-[5-cyclopropyl-2-(4-fluorophenyl)-3-(1H-imidazol-2-yl)-1-benzofuran-6-yl]-N-(cyclopropylmethyl)methanesulfonamide]	4.9	223	46	245	111	1010	111	111	224	52	52	154	267	23	379
CC(C)=CCN(c1cc2oc(-c3ccc(F)cc3)c(-c3ncc[nH]3)c2cc1C1CC1)S(C)(=O)=O [Example 54, N-[5-cyclopropyl-2-(4-fluorophenyl)-3-(1H-imidazol-2-yl)-1-benzofuran-6-yl]-N-(3-methylbut-2-en-1-yl)methanesulfonamide]	4.5	192	43	293	89	935	89	89	734	64	64	267	601	51	635
CS(=O)(=O)N(CC1CC1(F)F)c1cc2oc(-c3ccc(F)cc3)c(-c3ncc[nH]3)c2cc1C1CC1 (stereo not drawn) [Example 55, N-[5-cyclopropyl-2-(4-fluorophenyl)-3-(1H-imidazol-2-yl)-1-benzofuran-6-yl]-N-[(2,2-difluorocyclopropyl)methyl]methanesulfonamide]	5	366	73	28	68	1020	68	68	363	37	37	184	348	18	557
CCN(c1cc2oc(-c3ccc(F)cc3)c(-c3ncc[nH]3)c2cc1C1CC1)S(C)(=O)=O [Example 56, N-[5-cyclopropyl-2-(4-fluorophenyl)-3-(1H-imidazol-2-yl)-1-benzofuran-6-yl]-N-ethylmethanesulfonamide]	3.5	220	64	17	27.8	192	27.8	27.8	62	12.1	12.1	49.3	42.6	9.6	81.9
C=CCN(c1cc2oc(-c3ccc(F)cc3)c(-c3ncc[nH]3)c2cc1C1CC1)S(C)(=O)=O [Example 57, N-allyl-N-[5-cyclopropyl-2-(4-fluorophenyl)-3-(1H-imidazol-2-yl)-1-benzofuran-6-yl]methanesulfonamide]	3	232	77	11	35.2	306	35.2	35.2	69	17.7	17.7	51.5	72.4	9.1	138
